Laboratory results published in the supplement of paper PMC10307832.

Columns and labels:
Test in all cases: relative viability (nuclei count vs DMSO), 5 days (fraction); higher = more cells survive
Avagacestat + Luminespib = compound: NC(=O)[C@@H](CCC(F)(F)F)N(Cc1ccc(-c2ncon2)cc1F)S(=O)(=O)c1ccc(Cl)cc1 [Avagacestat] + CCNC(=O)c1noc(-c2cc(C(C)C)c(O)cc2O)c1-c1ccc(CN2CCOCC2)cc1 [Luminespib] (partner 0.01 µM)
Method in brief: (§1)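 Nuclei were stained with Hoechst during a one-step fixation (final 0.05% Triton X-100, 1% formaldehyde, 1 ug/ml Hoechst) carried out 5 days after dosing, then counted on 4× images. The cells, lung cancer lines in 1536-well plates, had been dosed by pin tool the day after seeding with one drug alone or a fixed anchor-drug dose plus five library-drug doses (not always all listed) in √10 steps. Relative viability is the nuclei count in treated wells divided by that in vehicle wells, and each value is the median of duplicate plates.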

Avagacestat + OSI-027 = compound: NC(=O)[C@@H](CCC(F)(F)F)N(Cc1ccc(-c2ncon2)cc1F)S(=O)(=O)c1ccc(Cl)cc1 [Avagacestat] + COc1cccc2cc(-c3nc([C@H]4CC[C@H](C(=O)O)CC4)n4ncnc(N)c34)[nH]c12 [OSI-027] (partner 0.5 µM)
Method in brief: as §1

Avagacestat + Lapatinib = compound: NC(=O)[C@@H](CCC(F)(F)F)N(Cc1ccc(-c2ncon2)cc1F)S(=O)(=O)c1ccc(Cl)cc1 [Avagacestat] + CS(=O)(=O)CCNCc1ccc(-c2ccc3ncnc(Nc4ccc(OCc5cccc(F)c5)c(Cl)c4)c3c2)o1 [Lapatinib] (partner 2 µM)
Method in brief: as §1

Avagacestat + Linsitinib = compound: NC(=O)[C@@H](CCC(F)(F)F)N(Cc1ccc(-c2ncon2)cc1F)S(=O)(=O)c1ccc(Cl)cc1 [Avagacestat] + C[C@]1(O)C[C@@H](c2nc(-c3ccc4ccc(-c5ccccc5)nc4c3)c3c(N)nccn32)C1 [Linsitinib] (partner 1 µM)
Method in brief: as §1

Cell Line	relative viability (Avagacestat + Luminespib; first compound 0.08 µM)	relative viability (Avagacestat + Luminespib; first compound 0.253 µM)	relative viability (Avagacestat + Luminespib; first compound 0.8 µM)	relative viability (Avagacestat + Luminespib; first compound 2.53 µM)	relative viability (Avagacestat + Luminespib; first compound 8 µM)	relative viability (Avagacestat + OSI-027; first compound 0.08 µM)	relative viability (Avagacestat + OSI-027; first compound 0.253 µM)	relative viability (Avagacestat + OSI-027; first compound 0.8 µM)	relative viability (Avagacestat + OSI-027; first compound 2.53 µM)	relative viability (Avagacestat + OSI-027; first compound 8 µM)	relative viability (Avagacestat + Lapatinib; first compound 0.08 µM)	relative viability (Avagacestat + Lapatinib; first compound 0.253 µM)	relative viability (Avagacestat + Lapatinib; first compound 0.8 µM)	relative viability (Avagacestat + Lapatinib; first compound 2.53 µM)	relative viability (Avagacestat + Lapatinib; first compound 8 µM)	relative viability (Avagacestat + Linsitinib; first compound 0.08 µM)	relative viability (Avagacestat + Linsitinib; first compound 0.253 µM)	relative viability (Avagacestat + Linsitinib; first compound 0.8 µM)	relative viability (Avagacestat + Linsitinib; first compound 2.53 µM)	relative viability (Avagacestat + Linsitinib; first compound 8 µM)
NCI-H2126	0.893	0.939	0.978	0.852	0.891	0.847	0.721	0.703	0.616	0.669	0.767	0.837	0.805	0.722	0.657	0.757	0.705	0.696	0.706	0.67
NCI-H23	0.229	0.235	0.215	–	0.223	0.778	0.619	0.8	0.627	0.537	1.61	1.29	1.17	1.05	1.32	0.759	0.636	0.675	0.548	0.456
PC-14	0.151	0.162	0.162	–	0.176	1.19	0.888	0.749	0.599	0.74	0.336	0.329	0.476	0.236	0.315	1.11	1.07	1.09	1	0.855
NCI-H727	0.36	0.343	0.289	0.355	0.39	0.675	0.632	0.92	0.521	0.517	0.939	0.875	1.19	0.876	0.671	0.252	0.342	0.35	0.278	0.26
NCI-H647	0.184	0.148	0.146	0.15	0.12	0.552	0.773	0.575	0.559	0.572	1.42	1.13	1.25	1.09	0.811	1.78	1.35	1.12	1.16	1.19
EBC-1	–	–	–	–	–	–	–	–	–	–	0.212	0.231	0.246	0.23	0.202	0.88	0.914	1.09	0.995	0.649
NCI-H838	0.363	0.256	0.233	0.254	0.191	0.364	0.466	0.389	0.398	0.366	1.5	1.04	1.13	0.865	0.835	1.25	1.26	1.09	0.89	0.918
NCI-H1355	0.769	0.717	0.797	0.635	0.641	0.404	0.388	0.426	0.38	0.342	1.24	1.15	1.1	0.926	0.871	0.95	0.859	0.812	0.687	0.651
LK-2	0.185	0.176	0.198	0.154	0.169	0.189	0.206	0.162	0.181	0.212	1.13	0.985	0.785	0.521	0.76	0.966	0.49	0.386	–	0.505
NCI-H2170	0.721	0.588	0.817	0.399	0.754	0.862	0.8	0.851	0.721	0.643	0.297	0.265	0.291	0.275	0.296	–	–	–	–	–
NCI-H1648	–	–	–	–	–	0.266	0.273	0.271	0.255	0.232	–	–	–	–	–	–	–	–	–	–
LCLC-103H	1.1	1.27	0.979	0.808	0.851	0.488	0.531	0.438	0.409	0.406	–	–	–	–	–	1.08	1.01	1.24	1.01	0.877
SW 900	0.176	0.168	0.173	0.153	0.177	0.756	0.731	0.581	0.573	0.653	–	–	–	–	–	–	–	–	–	–
NCI-H1299	–	–	–	–	–	–	–	–	–	–	1.03	0.984	0.988	0.924	0.926	0.987	1.12	1	0.988	0.926
NCI-H1650	0.222	0.203	0.212	0.202	0.193	0.49	0.671	0.643	0.782	0.67	1.02	0.825	0.695	0.884	0.853	–	–	–	–	–
HCC-78	–	–	–	–	–	0.381	0.4	0.349	0.373	0.401	0.556	0.696	1.48	0.7	0.579	0.568	0.54	0.706	0.396	0.406
IA-LM	–	–	–	–	–	–	–	–	–	–	1.8	1.39	1.38	1	1.07	1.24	0.859	1.11	1.01	0.984
NCI-H1703	–	–	–	–	–	–	–	–	–	–	0.986	1.28	1.44	1.02	1.03	0.982	0.768	0.854	0.784	0.93
NCI-H441	0.441	0.403	0.327	0.361	0.301	0.859	0.72	0.704	0.589	0.462	–	–	–	–	–	0.697	0.565	0.564	0.49	0.461
NCI-H522	1.08	1.12	1.03	1.21	1.15	0.823	0.728	0.655	0.689	0.725	–	–	–	–	–	–	–	–	–	–
HCC-366	–	–	–	–	–	1.07	1.49	1.01	0.772	0.872	1.6	1.26	1.23	1.05	1.21	1.06	0.782	0.835	0.471	0.373
